{"source": "patent US20120122727A1", "about": "“IN VITRO METHOD FOR PREDICTING WHETHER A COMPOUND IS GENOTOXIC IN VIVO” (priority 2009, published 2012)", "key": {"[1]": {"conditions": "known class of the validation compound (GTX = true GTX, FP-GTX = false GTX); cited from earlier work"}, "[2]": {"system": "primary mouse hepatocytes", "assay": "Class prediction true GTX vs false GTX by PAM from hepatocyte gene expression", "conditions": "for class prediction (true GTX / false GTX): independent triplicate treatments", "experimental": "PAM uses gene expression data to calculate the shrunken centroid for each class and identifies the specific genes that determine the centroid most. Based on the nearest shrunken centroid, PAM is also capable of predicting to which class an unknown sample belongs (27). Class prediction was performed after 24 h and 48 h of exposure.\nFor this analysis, the gene list with differentially expressed probe sets was used. For each exposure period, 3 sets of genes (classifiers) were generated by PAM, using all ten treatments, based on the smallest estimated misclassification error rate (generated by 10-fold cross-validation) and a >80% predicted test probability. This was done by using 2 experiments as training set and the third experiment for validation. This was done for all 3 possible combinations, each time leaving out another experiment. For each time point, the classifiers that were in common between the three training sets, were set as the final classifier set for that time point\nFor the purpose of validating the class discrimination models with the final classifier sets, gene expression data were generated for two additional true GTX compounds, phenacetin and DMBA, and for three False GTX compounds, cur, ethylacrylate and resorcinol and the vehicle control for exposure periods of 24 and 48 h."}}, "data": [{"compound": "Cc1c2ccccc2c(C)c2c1ccc1ccccc12", "note": "[DMBA]", "values": [{"measurement": "Genotoxic class", "setting": "[1]", "result": "GTX"}, {"measurement": "class prediction (true GTX / false GTX)", "setting": "[2]; 24 h exposure", "result": "classified correctly"}, {"measurement": "class prediction (true GTX / false GTX)", "setting": "[2]; 48 h exposure", "result": "classified correctly"}, {"measurement": "Prediction 24 h Exp 1", "setting": "[2]; PAM class prediction, 24 h, Exp 1", "result": "GTX"}, {"measurement": "Prediction 24 h Exp 2", "setting": "[2]; PAM class prediction, 24 h, Exp 2", "result": "GTX"}, {"measurement": "Prediction 24 h Exp 3", "setting": "[2]; PAM class prediction, 24 h, Exp 3", "result": "GTX"}, {"measurement": "Prediction 48 h Exp 1", "setting": "[2]; PAM class prediction, 48 h, Exp 1", "result": "GTX"}, {"measurement": "Prediction 48 h Exp 2", "setting": "[2]; PAM class prediction, 48 h, Exp 2", "result": "GTX"}, {"measurement": "Prediction 48 h Exp 3", "setting": "[2]; PAM class prediction, 48 h, Exp 3", "result": "GTX"}, {"measurement": "predicted test probability", "setting": "[2]; both time points (24 and 48 h)", "result": 100, "unit": "%"}]}]}
